# In patent US20220218712A1, “TREATMENT OF ALZHEIMER'S DISEASE” (Saint Louis University, priority 2019, published 2022):
# Columns and labels:
# SAMP8 mice [1] = experiment: T-maze shock avoidance, acquisition and one-week retention; assay type: in vivo, mouse; conditions: 12 month-old SAMP8 mice, 1 mg/kg IP every 48 hours for 5 weeks
# Description: FIG. 1 depicts the effects of a selective A3AR agonist, MRS5980, on learning and memory in 12 month-old SAMP8 mice. The selective A3AR agonist, MRS5980 (1 mg/kg, IP) or vehicle (saline) was given every 48 hours for 5 weeks starting at 12 months of age. Behavioral testing began after 3 weeks of treatment. NORPT—the Novel Object Recognition Protocol Test is a memory task that involves the hippocampus when, as performed herein, the retention interval is 24 hours after initial exposure to the two like objects. Mice received three 5 minutes habituation trials in an empty apparatus separated by 2 hours, the day prior to entry of the objects. During the training session, the mouse was exposed to two similar objects (plastic frogs) which it was allowed to examine for 5 minutes. The apparatus and the objects were cleaned between each trial to remove odor cures. Twenty-four hours later, the mouse was exposed to one of the original objects and a new novel object (plastic bird) and the time spent examining the objects was recorded. The results are expressed as Discrimination index=(Total new−Total old)/Total new+Total old)]. The novel object was made out of the same material as the original object and of the same size, but a different shape. The underlying concept of the NORPT is based on the tendency of mice to spend more time exploring new objects than familiar ones. Thus, the greater the retention/memory at 24 hours, the more time spent with the new object the higher the discrimination. […] Number of attempts before first successful avoidance of the shock in T-maze and retention (memory) for the T-maze one-week later was also determined. Retention was defined as number of trial to successfully avoid the shock 5 out of 6 consecutive trials. […] ANOVA followed by pairwise Tukey's post hoc test. Means±SEM; n=6-8/group; **p<0.01.
# SAMP8 mice [2] = experiment: Novel Object Recognition Protocol Test (NORPT); assay type: in vivo, mouse; conditions: 12 month-old SAMP8 mice, 1 mg/kg IP every 48 hours for 5 weeks
# Description: FIG. 1 depicts the effects of a selective A3AR agonist, MRS5980, on learning and memory in 12 month-old SAMP8 mice. The selective A3AR agonist, MRS5980 (1 mg/kg, IP) or vehicle (saline) was given every 48 hours for 5 weeks starting at 12 months of age. Behavioral testing began after 3 weeks of treatment. NORPT—the Novel Object Recognition Protocol Test is a memory task that involves the hippocampus when, as performed herein, the retention interval is 24 hours after initial exposure to the two like objects. Mice received three 5 minutes habituation trials in an empty apparatus separated by 2 hours, the day prior to entry of the objects. During the training session, the mouse was exposed to two similar objects (plastic frogs) which it was allowed to examine for 5 minutes. The apparatus and the objects were cleaned between each trial to remove odor cures. Twenty-four hours later, the mouse was exposed to one of the original objects and a new novel object (plastic bird) and the time spent examining the objects was recorded. The results are expressed as Discrimination index=(Total new−Total old)/Total new+Total old)]. The novel object was made out of the same material as the original object and of the same size, but a different shape. […] Number of attempts before first successful avoidance of the shock in T-maze and retention (memory) for the T-maze one-week later was also determined. […]
# [3] = vs old vehicle treated controls
smiles,measurement,setting,value
CNC(=O)[C@@]12C[C@@H]1[C@@H](n1cnc3c(NC)nc(C#Cc4ccc(Cl)s4)nc31)[C@H](O)[C@@H]2O [MRS5980],T-maze learning and retention,SAMP8 mice [1]; old treated mice vs young vehicle treated controls,no difference between the young vehicle treated controls and the old A3AR treated mice
same,Number of attempts before first successful avoidance of the shock in T-maze (learning),SAMP8 mice [1]; [3],learned and remembered the T-maze better than the old vehicle treated controls
same,"Retention (memory) for the T-maze one-week later, trials to avoid the shock 5 out of 6 consecutive trials",SAMP8 mice [1]; [3],remembered the T-maze better than the old vehicle treated controls
same,Discrimination index (memory at 24 hours) in NORPT,SAMP8 mice [2]; old treated mice vs young mice,no difference between the young mice and the old A3 AR treated mice
same,Discrimination index (memory at 24 hours) in NORPT,"SAMP8 mice [2]; retention interval 24 hours, vs vehicle treated controls, **p<0.01",significantly better memory than vehicle treated controls
